Measurements: patent US10206907B2, “Compounds useful for the treatment of degenerative and inflammatory diseases” (GALAPAGOS NV, priority 2008, dated 2019)
Read-outs that look alike come from different tables or passages of the source.

Key:
[1] = test system: JAK-STAT signalling in HeLa cells; assay: JAK-STAT signalling assay (OSM-triggered pSTAT1(2)-luciferase reporter in HeLa cells); format: cell-based; conditions: Homo sapiens; HeLa cells, OSM-triggered pSTAT1(2)-luciferase reporter; read-out: STAT signalling EC50
In short: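 HeLa cells transiently transfected with pSTAT1(2)-luciferase reporter plus LacZ internal control, incubated overnight at 37 °C, 10% CO2, then OSM-stimulated with compound. Luciferase read by Steadylite luminescence and normalised to β-galactosidase (ONPG); percent inhibition from controls, EC50 from dose-response.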

MMP13 in SW1353 cells = assay: OSM/IL-1β signaling assay (MMP13 levels in SW1353 cells); format: cell-based; conditions: Homo sapiens; SW1353 cells, OSM and IL-1β triggered, MMP13 levels 48 hours after triggering; read-out: MMP13 EC50;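 further: secreted MMP13 captured by antibody, activated with APMA and its activity read by fluorescence, inhibition scaled between vehicle-treated triggered wells (0%) and untriggered wells (100%)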
TNF-alpha release = assay: Septic shock model (LPS-induced TNF release); format: in vivo, mouse; conditions: 30 mg/kg po, BALB/cJ mice, LPS ip; statistically significant
Method: Injection of lipopolysaccharide (LPS) induces a rapid release of soluble tumour necrosis factor (TNF-alpha) into the periphery. This model is used to analyse prospective blockers of TNF release in vivo.
Six BALB/cJ female mice (20 g) per group were treated at the intended dosing once, po. Thirty minutes later, LPS (15 μg/kg; E. Coli serotype 0111:B4) was injected ip. Ninety minutes later, mice were euthanized and blood was collected. Circulating TNF alpha levels were determined using commercially available ELISA kits. Dexamethasone (5 μg/kg) was used as a reference anti-inflammatory compound. Selected compounds are tested at one or multiple doses, e.g. 3 and/or 10 and/or 30 mg/kg, po.

[2] = Microsomal stability, human liver microsomes; format: in vitro ADME; conditions: percentage of compound remaining after 60 minutes, 3 μM compound
In short: (§1)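 Compound was incubated with liver microsomes plus an NADP+/glucose-6-phosphate/G6PDH/MgCl2 regenerating system at 37°C for 1 h. Reactions were stopped 1:1 with MeOH or ACN and analysed by LCMS.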

[3] = Microsomal stability, rat liver microsomes; format: in vitro ADME; conditions: percentage of compound remaining after 60 minutes, 3 μM compound
In short: as §1

[4] = Caco2 permeability (bi-directional); format: in vitro ADME, human; conditions: human, pH 7.4; for efflux ratio at 1 h, 10 µM: Caco-2, ratio of PappB>A/PappA>B; for Papp A→B at 1 h, 10 µM: Caco-2, apical to basolateral, read-out: Papp (A2B)
In short: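 Bidirectional transport across Caco-2 monolayers was run for 1 h at 37 °C with shaking, with 50 μM Lucifer Yellow in the donor to check monolayer integrity (acceptance ≤100 nm/s). Apical and basal compound levels were measured by LC-MS/MS, and efflux ratio was taken as PappB>A/PappA>B.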

[5] = molecular target: Recombinant human JAK1 catalytic domain (Homo sapiens (Human), UniProt P23458); assay: JAK1 inhibition assay; format: biochemical
Recombinant human JAK1 catalytic domain, sequence (P23458 850-1154): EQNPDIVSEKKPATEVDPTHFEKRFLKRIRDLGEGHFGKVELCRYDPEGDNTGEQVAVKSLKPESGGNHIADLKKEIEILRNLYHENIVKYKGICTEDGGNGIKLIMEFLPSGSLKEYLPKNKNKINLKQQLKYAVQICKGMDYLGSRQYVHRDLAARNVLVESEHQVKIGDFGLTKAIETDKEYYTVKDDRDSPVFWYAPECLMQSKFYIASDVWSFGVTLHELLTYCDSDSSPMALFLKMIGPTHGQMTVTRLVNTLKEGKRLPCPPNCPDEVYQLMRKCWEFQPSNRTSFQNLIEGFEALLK
In short: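 Radiometric assay read by scintillation counting after phosphoric-acid washes. Percent inhibition calculated from cpm relative to vehicle and 10 μM staurosporine control. IC50 derived from compound dose-dilution series.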

[6] = molecular target: Recombinant human JAK2 catalytic domain (Homo sapiens (Human), UniProt O60674); assay: JAK2 inhibition assay; format: biochemical; conditions: semi-quantitative score
Recombinant human JAK2 catalytic domain, sequence (O60674 808-1132): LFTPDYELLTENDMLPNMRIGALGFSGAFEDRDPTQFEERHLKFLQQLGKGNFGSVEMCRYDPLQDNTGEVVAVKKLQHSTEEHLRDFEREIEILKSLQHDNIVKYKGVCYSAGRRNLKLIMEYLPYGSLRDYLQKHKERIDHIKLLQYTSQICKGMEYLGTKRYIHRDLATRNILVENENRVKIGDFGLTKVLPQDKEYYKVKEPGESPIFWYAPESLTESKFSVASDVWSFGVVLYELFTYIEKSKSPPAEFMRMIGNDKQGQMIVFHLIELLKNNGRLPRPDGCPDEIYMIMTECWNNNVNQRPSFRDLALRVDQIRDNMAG
In short: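 Radiometric kinase reactions ran for 90 min at 30 °C and were stopped with phosphoric acid, then washed and counted by scintillation. Percent inhibition was set relative to vehicle and to 10 μM staurosporine background. IC50 was derived from dose-dilution series.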

[7] = molecular target: Recombinant human JAK3 catalytic domain (Homo sapiens (Human), UniProt P52333); assay: JAK3 inhibition assay; format: biochemical; conditions: semi-quantitative score
Recombinant human JAK3 catalytic domain, sequence (P52333 781-1124): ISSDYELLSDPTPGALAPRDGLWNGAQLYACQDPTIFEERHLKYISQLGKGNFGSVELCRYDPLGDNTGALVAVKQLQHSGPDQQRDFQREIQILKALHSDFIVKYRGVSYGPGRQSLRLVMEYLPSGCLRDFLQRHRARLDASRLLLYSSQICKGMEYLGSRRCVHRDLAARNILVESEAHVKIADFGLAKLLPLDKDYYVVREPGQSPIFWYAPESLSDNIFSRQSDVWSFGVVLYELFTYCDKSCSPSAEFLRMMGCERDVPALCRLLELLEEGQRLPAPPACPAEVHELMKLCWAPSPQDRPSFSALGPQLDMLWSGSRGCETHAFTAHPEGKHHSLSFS

[8] = molecular target: Recombinant human TYK2 catalytic domain (Homo sapiens (Human), UniProt P29597); assay: TYK2 inhibition assay; format: biochemical; conditions: semi-quantitative score
Recombinant human TYK2 catalytic domain, sequence (P29597 871-1187): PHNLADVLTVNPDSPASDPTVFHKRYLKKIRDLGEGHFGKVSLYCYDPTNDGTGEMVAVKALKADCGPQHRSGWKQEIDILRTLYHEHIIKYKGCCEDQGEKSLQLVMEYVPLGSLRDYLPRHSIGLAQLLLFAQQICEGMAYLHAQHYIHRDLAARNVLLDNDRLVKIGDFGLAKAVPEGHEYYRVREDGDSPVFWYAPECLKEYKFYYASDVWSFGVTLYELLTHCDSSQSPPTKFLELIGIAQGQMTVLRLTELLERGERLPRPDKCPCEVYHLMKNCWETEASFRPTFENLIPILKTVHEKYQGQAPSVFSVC
Method: After 90 min at 30° C., reactions were stopped by adding of 25 μL/well of 150 mM phosphoric acid. […] Plates were washed 6 times with 300 μL per well of a 75 mM phosphoric acid solution and the bottom of the plates was sealed. 40 μL/well of Microscint-20 was added, the top of the plates was sealed and readout was performed using the Topcount (Perkin Elmer). Kinase activity was calculated by subtracting counts per minute (cpm) obtained in the presence of a positive control inhibitor (10 μM staurosporine) from cpm obtained in the presence of vehicle. The ability of a test compound to inhibit this activity was determined as: Percentage inhibition=((cpm determined for sample with test compound present−cpm determined for sample with positive control inhibitor) divided by (cpm determined in the presence of vehicle−cpm determined for sample with positive control inhibitor))*100%.
Dose dilution series were prepared for the compounds enabling the testing of dose-response effects in the TYK2 assay and the calculation of the IC50 for each compound.

Structure (SMILES)	EC50 [1]	EC50 (MMP13 in SW1353 cells)	reduction in the TNF release (TNF-alpha release)	Microsomal Stability Human (%) [2]	Microsomal Stability Rat (%) [3]	efflux ratio at 1 h, 10 µM [4]	IC50 ([5]; semi-quantitative score)	IC50 [6]	IC50 [7]	IC50 [8]	Papp A→B at 1 h, 10 µM [4]	IC50 [5]
O=C(Nc1nc2cccc(-c3ccc(OCc4ccccn4)cc3)n2n1)C1CC1 [Compound 37, N-(5-(4-(pyridin-2-ylmethoxy)phenyl)-[1,2,4]triazolo[1,5-a]pyridin-2-yl)cyclopropanecarboxamide]	501 to 1000 nM	> 1000 nM	> 50%	*** (*** 51-75)	*** (*** 51-75)							
O=C(Nc1nc2cccc(-c3ccc(OCc4cccnc4)cc3)n2n1)C1CC1 [Compound 36, N-(5-(4-(pyridin-3-ylmethoxy)phenyl)-[1,2,4]triazolo[1,5-a]pyridin-2-yl)cyclopropanecarboxamide]	101 to 500 nM	501 to 1000 nM	> 50%	* (* 0-25)	*** (*** 51-75)	0.89						
Cc1ccc(COc2ccc(-c3cccc4nc(NC(=O)C5CC5)nn34)cc2)cn1 [Compound 197, Cyclopropanecarboxylic acid {5-[4-(6-methyl-pyridin-3-ylmethoxy)-phenyl]-[1,2,4]triazolo[1,5-a]pyridin-2-yl}-amide]	101 to 500 nM	> 1000 nM	> 50%	** (** 26-50)	*** (*** 51-75)		< 100 nM	< 100 nM				
NC(=O)c1ccccc1NCc1ccc(-c2cccc3nc(NC(=O)C4CC4)nn23)cc1 [Compound 306, 2-{4-[2-(Cyclopropanecarbonyl-amino)-[1,2,4]triazolo[1,5-a]pyridin-5-yl]-benzylamino}-benzamide]	101 to 500 nM	501 to 1000 nM		*** (*** 51-75)	** (** 26-50)	6.55	< 100 nM	< 100 nM	< 100 nM	< 100 nM	6.55 ×10⁻⁶ cm/s	
O=C(Nc1nc2cccc(-c3ccc(CNc4ccon4)cc3)n2n1)C1CC1 [Compound 302, Cyclopropanecarboxylic acid {5-[4-(isoxazol-3-ylaminomethyl)-phenyl]-[1,2,4]triazolo[1,5-a]pyridin-2-yl}-amide]	101 to 500 nM	> 1000 nM		*** (*** 51-75)	*** (*** 51-75)	5.98	< 100 nM	< 100 nM	101 to 500 nM	< 100 nM	8.45 ×10⁻⁶ cm/s	
O=C(Nc1nc2cccc(-c3ccc(OC4CCCC4)cc3)n2n1)C1CC1 [Compound 40, N-(5-(4-(cyclopentyloxy)phenyl)-[1,2,4]triazolo[1,5-a]pyridin-2-yl)cyclopropanecarboxamide]	101 to 500 nM	1 to 500 nM		* (* 0-25)	* (* 0-25)	0.67	< 100 nM	< 100 nM	501 to 1000 nM	501 to 1000 nM	44.9 ×10⁻⁶ cm/s	
CC(=O)N(Cc1ccccn1)c1ccc(-c2cccc3nc(NC(=O)C4CC4)nn23)cc1 [Compound 208, Cyclopropanecarboxylic acid {5-[4-(acetyl-pyridin-2-ylmethyl-amino)-phenyl]-[1,2,4]triazolo[1,5-a]pyridin-2-yl}-amide]	> 1000 nM	> 1000 nM	> 50%	*** (*** 51-75)	**** (**** 76-100)		< 100 nM	< 100 nM				
O=C(Nc1nc2cccc(-c3ccc(C(=O)N4CCCCC4)cc3)n2n1)C1CC1 [Compound 17]	> 1000 nM	> 1000 nM		**** (**** 76-100)	** (** 26-50)	2.97	< 100 nM	101 to 500 nM	> 1000 nM	501 to 1000 nM	11.4 ×10⁻⁶ cm/s	
O=C(Nc1nc2cccc(-c3ccc(C(=O)N4CCC(C(F)(F)F)CC4)cc3)n2n1)C1CC1 [Compound 148, N-(5-(4-(4-(trifluoromethyl)piperidine-1-carbonyl)phenyl)-[1,2,4]triazolo[1,5-a]pyridin-2-yl)cyclopropanecarboxamide]	> 1000 nM	> 1000 nM	> 50%	*** (*** 51-75)	** (** 26-50)		< 100 nM					
Cn1ccc(COc2ccc(-c3cccc4nc(NC(=O)C5CC5)nn34)cc2)n1 [Compound 48]	> 1000 nM	> 1000 nM		*** (*** 51-75)	*** (*** 51-75)	1	< 100 nM	101 to 500 nM	> 1000 nM	> 1000 nM	28.8 ×10⁻⁶ cm/s	
O=C(NCCc1ccccc1)c1ccc(-c2cccc3nc(NC(=O)C4CC4)nn23)c(F)c1 [Compound 111, 4-(2-(cyclopropanecarboxamido)-[1,2,4]triazolo[1,5-a]pyridin-5-yl)-3-fluoro-N-phenethylbenzamide]	501 to 1000 nM	> 1000 nM		** (** 26-50)	** (** 26-50)	2.9	< 100 nM	101 to 500 nM	501 to 1000 nM	> 1000 nM	8.23 ×10⁻⁶ cm/s	
O=C(Nc1nc2cccc(-c3ccc(OCc4ccccc4)c(F)c3)n2n1)C1CC1 [Compound 15, N-(5-(4-(benzyloxy)-3-fluorophenyl)-[1,2,4]triazolo[1,5-a]pyridin-2-yl)cyclopropanecarboxamide]	101 to 500 nM	> 1000 nM		** (** 26-50)	* (* 0-25)	0.91	< 100 nM	< 100 nM	101 to 500 nM	> 1000 nM		
CC(=O)Nc1nc2cccc(-c3ccc(OCc4ccccc4)cc3)n2n1 [Compound 163, N-(5-(4-(benzyloxy)phenyl)-[1,2,4]triazolo[1,5-a]pyridin-2-yl)acetamide]	> 1000 nM	> 1000 nM		*** (*** 51-75)	** (** 26-50)	0.85		< 100 nM	101 to 500 nM	> 1000 nM		< 100 nM
O=C(Nc1nc2cccc(-c3ccc(S(=O)(=O)NC4CC4)cc3)n2n1)C1CC1 [Compound 13, N-(5-(4-(N-cyclopropylsulfamoyl)phenyl)-[1,2,4]triazolo[1,5-a]pyridin-2-yl)cyclopropanecarboxamide]	> 1000 nM	> 1000 nM		*** (*** 51-75)	**** (**** 76-100)	11.9	< 100 nM	< 100 nM	> 1000 nM	501 to 1000 nM	3.03 ×10⁻⁶ cm/s	
